Patent publication US11434226B2, “Salt and polymorph of benzopyrimidinone compound and pharmaceutical composition and use thereof” (SHANGHAI INSTITUTE OF MATERIA MEDICA, CHINESE ACADEMY OF …, priority 2017, dated 2022)
Entries after “also recorded” stand apart in the source; their conditions may differ. Structures can show the parent of a compound that is named as a salt. Where two headings read alike, the source gives them in different places.

Assays:
[1] = Hygroscopicity of solid forms of hydrochlorate of compound Z; assay type: physicochemical
Description: (§1) The properties of crystalline form A prepared in Examples 11 or 12, crystalline form B prepared in Example 14 and amorphous substance prepared in Example 15 were compared, the results were shown in the following table 6.

[2] = Comparison of solubility of compound Z and its salts; assay type: physicochemical
Description: An appropriate amount of the sample was weighed in a glass test tube and a selected solvent was gradually added therein to observe the clarification.

[3] = Comparison of compound appearance and characters (odor); assay type: physicochemical
Description: The appearance and characters of the basic compound Z prepared in Example 16 and different salts of compound Z prepared in Examples 1-2, 5-6, 9 were observed, the results are shown in the table below: […]

[4] = Chemical stability by stress testing (high temperature, high humidity, illumination); assay type: physicochemical; conditions: for stability, in words: high temperature, light and high humidity conditions
Description: The chemical stability of the basic compound Z prepared in Example 16 and the salts of compound Z prepared in Examples 5, 9 and 10 was compared through a stress testing, the results were shown in the table below: […]

[5] = Crystal stability of solid forms of hydrochlorate of compound Z; assay type: physicochemical
Description: as §1

[6] = In vivo pharmacokinetic experiment in rats; conditions: by gavage
Protocol: The in vivo pharmacokinetic experiment in rats were carried out for the basic compound Z prepared in Example 16, the hydrochlorate of compound Z prepared in Example 9, the succinate of compound Z prepared in Example 2, the fumarate of compound Z prepared in Example 3 (administered by gavage, dose 3 mg/kg), the results were shown in FIG. 8 of the specification.

[7] = selected solvent of pH 2 (composition not named), simulated gastric fluid, thermodynamic from solid, pH = 2, read-out: Solubility
[8] = selected solvent of pH 4.5 (composition not named), aqueous buffer, thermodynamic from solid, pH = 4.5, read-out: Solubility
[9] = selected solvent of pH 6.8 (composition not named), aqueous buffer, thermodynamic from solid, pH = 6.8, read-out: Solubility
[10] = thermodynamic from solid, water (deionized), read-out: Solubility
[11] = High humidity (25° C., 92.5% RH), 5 days
[12] = High humidity (25° C., 92.5% RH), 10 days
[13] = high temperature (60° C.), 5 days
[14] = high temperature (60° C.), 10 days
[15] = illumination (4500 lx ± 500 lx), 5 days
[16] = illumination (4500 lx ± 500 lx), 10 days

With `CCCOc1ccc(NC(=O)CN2CCN(C)CC2)cc1-c1nc(CC)c(CC)c(=O)[nH]1.Cl` [Amorphous, 5,6-diethyl-2-[2-n-propoxy-5-(2-(4-methylpiperazin-1-yl)acetamido)phenyl]pyrimidin-4(3H)-one Hydrochloride (Amorphous)] the “hygroscopicity, water absorption” value ([1]; 65% RH) was 65% RH, water absorption 16.53% and the “hygroscopicity, water absorption” value ([1]; 80% RH) was 80% RH, water absorption 6.74%.
`CC(=O)O.CCCOc1ccc(NC(=O)CN2CCN(C)CC2)cc1-c1nc(CC)c(CC)c(=O)[nH]1` [acetate of compound Z, 5,6-diethyl-2-[2-n-propoxy-5-(2-(4-methylpiperazin-1-yl)acetamido)phenyl]pyrimidin-4(3H)-one Acetate] gave a solubility [2, 7] of 35.8 mg/mL, a solubility [2, 8] greater than 102 mg/mL and a solubility [2, 9] of 22.6 mg/mL. The solubility [2, 10] was 14 mg/mL.
With `CCCOc1ccc(NC(=O)CN2CCN(C)CC2)cc1-c1nc(CC)c(CC)c(=O)[nH]1` [compound Z, 5,6-diethyl-2-[2-n-propoxy-5-(2-(4-methylpiperazin-1-yl)acetamido)phenyl]pyrimidin-4(3H)-one] the “solubility, in words” value [2] was “poor solubility in water; also recorded: significantly lower”, the solubility [2, 7] was 5.3 mg/mL and the solubility [2, 8] was 38.1 mg/mL. The solubility [2, 9] was 1.7 mg/mL, the solubility [2, 10] was 1.5 mg/mL and the odor [3] was “Pungent odor”. For the same compound, the characters ([4]; 0 days) was “White”, the purity ([4]; 0 days) was 99.6% and the characters [4, 11] was “White”. The purity [4, 11] was 99.64%, the characters [4, 12] was “White” and the purity [4, 12] was 99.53%. The characters [4, 13] was “White”, the purity [4, 13] was 99.69% and the characters [4, 14] was “White”. The purity [4, 14] was 99.36%, the “stability, in words” value [4] was “relatively poor” and the characters [4, 15] was “Yellowish”. For the same compound, the purity [4, 15] was 99.37% and the characters [4, 16] was “Yellowish”.
With `CCCOc1ccc(NC(=O)CN2CCN(C)CC2)cc1-c1nc(CC)c(CC)c(=O)[nH]1` [form A, 5,6-diethyl-2-[2-n-propoxy-5-(2-(4-methylpiperazin-1-yl)acetamido)phenyl]pyrimidin-4(3H)-one hydrochloride monohydrate (Form A)] the “hygroscopicity, in words” value [1] was “low hygroscopicity”, the “hygroscopicity, water absorption” value ([1]; 65% RH) was 65% RH, water absorption 2.48% and the “hygroscopicity, water absorption” value ([1]; 80% RH) was 80% RH, water absorption 3.41%. For the same compound, the Crystal stability [5] was “stable” and the Crystal stability ([5]; listed as crystal form A) was “stable properties”.
For `CCCOc1ccc(NC(=O)CN2CCN(C)CC2)cc1-c1nc(CC)c(CC)c(=O)[nH]1.Cl` [form B, 5,6-diethyl-2-[2-n-propoxy-5-(2-(4-methylpiperazin-1-yl)acetamido)phenyl]pyrimidin-4(3H)-one Hydrochlorate (Form B)], the “hygroscopicity, water absorption” value ([1]; 65% RH) was 65% RH, water absorption 3.58% and the “hygroscopicity, water absorption” value ([1]; 80% RH) was 80% RH, water absorption 11.3%.
For `CCCOc1ccc(NC(=O)CN2CCN(C)CC2)cc1-c1nc(CC)c(CC)c(=O)[nH]1.O=C(O)/C=C/C(=O)O` [fumarate of compound Z, 5,6-diethyl-2-[2-n-propoxy-5-(2-(4-methylpiperazin-1-yl)acetamido)phenyl]pyrimidin-4(3H)-one Fumarate], the solubility [2, 7] was greater than 24.2 mg/mL, the solubility [2, 8] was greater than 20.2 mg/mL and the solubility [2, 9] was greater than 27 mg/mL. For the same compound, the solubility [2, 10] was greater than 26.6 mg/mL.
For `CCCOc1ccc(NC(=O)CN2CCN(C)CC2)cc1-c1nc(CC)c(CC)c(=O)[nH]1.Cl` [hydrochlorate of compound Z, 5,6-diethyl-2-[2-n-propoxy-5-(2-(4-methylpiperazin-1-yl)acetamido)phenyl]pyrimidine-4(3H)-one Hydrochlorate], the “solubility, in words” value [2] was “good solubility”, the solubility [2, 7] was greater than 22.8 mg/mL and the solubility [2, 8] was greater than 23.6 mg/mL. For the same compound, the solubility [2, 9] was greater than 26.6 mg/mL, the solubility [2, 10] was greater than 25 mg/mL and the odor [3] was “No bad smell”. For the same compound, the characters ([4]; 0 days) was “White”, the purity ([4]; 0 days) was 99.77% and the characters [4, 11] was “White”. The purity [4, 11] was 99.73%, the characters [4, 12] was “White” and the purity [4, 12] was 99.77%. For the same compound, the characters [4, 13] was “White”, the purity [4, 13] was 99.65% and the characters [4, 14] was “White”. The purity [4, 14] was 99.71%, the “stability, in words” value [4] was “high stability” and the “stability, in words” value ([4]; listed as hydrochlorate) was “stable”. For the same compound, the characters [4, 15] was “White”, the purity [4, 15] was 99.79% and the characters [4, 16] was “White”. The purity [4, 16] was 99.72%, the “oral bioavailability, in words” value ([6]; 3 mg/kg) was “high oral bioavailability” and the “in vivo pharmacokinetic properties (plasma concentration-time curve, FIG. 8), in words” value ([6]; dose 3 mg/kg, compared with compound Z) was “significantly better”.
`CCCOc1ccc(NC(=O)CN2CCN(C)CC2)cc1-c1nc(CC)c(CC)c(=O)[nH]1.O=C(O)/C=C\C(=O)O` [maleate of compound Z, 5,6-diethyl-2-[2-n-propoxy-5-(2-(4-methylpiperazin-1-yl)acetamido)phenyl]pyrimidine-4(3H)-one Maleate] showed a solubility [2, 7] of 6.1 mg/mL, a solubility [2, 8] of 21.4 mg/mL and a solubility [2, 9] of 46.4 mg/mL. For the same compound, the solubility [2, 10] was 5.8 mg/mL and the odor [3] was “No bad smell”.
Compound `CCCOc1ccc(NC(=O)CN2CCN(C)CC2)cc1-c1nc(CC)c(CC)c(=O)[nH]1.CS(=O)(=O)O` [methanesulfonate of compound Z, 5,6-diethyl-2-[2-n-propoxy-5-(2-(4-methylpiperazin-1-yl)acetamido)phenyl]pyrimidin-4(3H)-one Methanesulfonate] has a solubility [2, 7] greater than 22.4 mg/mL, a solubility [2, 8] greater than 25.4 mg/mL and a solubility [2, 9] greater than 23.2 mg/mL. For the same compound, the solubility [2, 10] was greater than 23.8 mg/mL, the odor [3] was “No bad smell” and the characters ([4]; 0 days) was “White”. For the same compound, the purity ([4]; 0 days) was 99.66%, the characters [4, 11] was “Yellow” and the purity [4, 11] was 99.54%. The characters [4, 12] was “Yellow”, the purity [4, 12] was 99.55% and the characters [4, 13] was “White”. The purity [4, 13] was 99.54%, the characters [4, 14] was “White” and the purity [4, 14] was 99.49%. The characters [4, 15] was “White”, the purity [4, 15] was 99.72% and the characters [4, 16] was “White”. The purity [4, 16] was 99.46%.
Compound `CCCOc1ccc(NC(=O)CN2CCN(C)CC2)cc1-c1nc(CC)c(CC)c(=O)[nH]1.O=C(O)[C@@H](O)[C@H](O)[C@H](O)[C@@H](O)C(=O)O` [mucate of compound Z, 5,6-diethyl-2-[2-n-propoxy-5-(2-(4-methylpiperazin-1-yl)acetamido)phenyl]pyrimidin-4(3H)-one Mucate] has a solubility ([2]; pH = 2) of 36.3 mg/mL, a solubility ([2]; pH = 4.5) of 62.7 mg/mL and a solubility ([2]; pH = 6.8) of 39.0 mg/mL. It also gave a solubility ([2]; water (deionized)) of 10.6 mg/mL.
With `CCCOc1ccc(NC(=O)CN2CCN(C)CC2)cc1-c1nc(CC)c(CC)c(=O)[nH]1.O=C(O)CCC(=O)O` [succinate of compound Z, 5,6-diethyl-2-[2-n-propoxy-5-(2-(4-methylpiperazin-1-yl)acetamido)phenyl]pyrimidin-4(3H)-one Succinate] the solubility [2, 7] was greater than 20.8 mg/mL, the solubility [2, 8] was greater than 22 mg/mL and the solubility [2, 9] was greater than 20.8 mg/mL. For the same compound, the solubility [2, 10] was greater than 24.8 mg/mL and the odor [3] was “No bad smell”.
For `CCCOc1ccc(NC(=O)CN2CCN(C)CC2)cc1-c1nc(CC)c(CC)c(=O)[nH]1.O=S(=O)(O)O` [sulfate of compound Z, 5,6-diethyl-2-[2-n-propoxy-5-(2-(4-methylpiperazin-1-yl)acetamido)phenyl]pyrimidin-4(3H)-one Sulfate], the solubility [2, 7] was greater than 20.2 mg/mL, the solubility [2, 8] was greater than 25.6 mg/mL and the solubility [2, 9] was greater than 24.4 mg/mL. The solubility [2, 10] was greater than 20.6 mg/mL, the characters ([4]; 0 days) was “Yellow” and the purity ([4]; 0 days) was 99.63%. For the same compound, the characters [4, 11] was “Yellow powder”, the purity [4, 11] was 99.64% and the characters [4, 12] was “Yellow powder”. The purity [4, 12] was 99.62%, the characters [4, 13] was “Yellow” and the purity [4, 13] was 99.59%. The characters [4, 14] was “Yellow”, the purity [4, 14] was 99.64% and the characters [4, 15] was “Yellow”. The purity [4, 15] was 97.43%, the characters [4, 16] was “Gray-yellow” and the purity [4, 16] was 96.99%.
Work on `CCCOc1ccc(NC(=O)CN2CCN(C)CC2)cc1-c1nc(CC)c(CC)c(=O)[nH]1.O=C(O)C(O)C(O)C(=O)O` [tartrate of compound Z, 5,6-diethyl-2-[2-n-propoxy-5-(2-(4-methylpiperazin-1-yl)acetamido)phenyl]pyrimidin-4(3H)-one Tartrate] yielded a solubility [2, 7] greater than 219 mg/mL, a solubility [2, 8] greater than 155 mg/mL and a solubility [2, 9] greater than 130 mg/mL. For the same compound, the solubility [2, 10] was greater than 153 mg/mL and the odor [3] was “No bad smell”.
